Calls of active or inactive are those of the source. The rule behind the calls is not given here.
Columns and labels:
Cannabinoid receptor 2 [1] = target: T1, Cannabinoid receptor 2 (Homo sapiens, UniProt P34972); experiment: Agonist activity at human CB2 receptor expressing CHO cells co-expressing Galpha16 by calcium mobilization assay; assay type: functional, cell-based
Cannabinoid receptor 1 [2] = target: T2, Cannabinoid receptor 1 (Homo sapiens, UniProt P21554); experiment: Agonist activity at human CB1 receptor expressing CHO cells co-expressing Galpha16 by calcium mobilization assay; assay type: functional, cell-based
Cannabinoid receptor 2 [3] = target: T1, Cannabinoid receptor 2; experiment: Agonist activity at human CB2 receptor expressing CHO cells co-expressing Galpha16 by calcium mobilization assay relative to CP55940; assay type: functional, cell-based
Cannabinoid receptor 1 [4] = target: T2, Cannabinoid receptor 1; experiment: Agonist activity at human CB1 receptor expressing CHO cells co-expressing Galpha16 by calcium mobilization assay relative to CP55940; assay type: functional, cell-based
in vitro [5] = conditions: human, liver microsomes
in vitro [6] = conditions: human, liver
in vitro [7] = conditions: human, liver microsomes; remark: listed apart in the source
Description: Half life in human liver microsomes at 1 uM in presence of NADPH by LC-MS/MS analysis

in vitro [8] = conditions: human, liver microsomes; remark: listed apart in the source
Description: Stability in human liver microsomes assessed as parent compound remaining at 1 uM incubated for 60 mins in presence of NADPH by LC-MS/MS analysis

Cannabinoid receptor 2 [9] = target: T1, Cannabinoid receptor 2; experiment: Antagonist activity at human CB2 receptor expressing CHO cells co-expressing Galpha16 assessed as inhibition of CP55940-induced calcium mobilization pre-incubated for 15 mins before CP55940 addition; assay type: functional, cell-based
Cannabinoid receptor 1 [10] = target: T2, Cannabinoid receptor 1; experiment: Agonist activity at CB1 receptor (unknown origin) relative to control; conditions: filed as agonist
Cannabinoid receptor 1 [11] = target: T2, Cannabinoid receptor 1; experiment: Agonist activity at CB1 receptor (unknown origin)
Cannabinoid receptor 2 [12] = target: T1, Cannabinoid receptor 2; experiment: Agonist activity at CB2 receptor (unknown origin) relative to control; conditions: filed as agonist
Cannabinoid receptor 1 [13] = target: T2, Cannabinoid receptor 1; experiment: Induction of receptor desensitization at human CB1 receptor expressing CHO cells co-expressing Galpha16 at 10 uM followed by washing with HBSS buffer upon incubation for 10 mins and restimulated with CP55940 by calcium mobilization assay; assay type: functional, cell-based; conditions: filed as agonist
Cannabinoid receptor 1 [14] = target: T2, Cannabinoid receptor 1; experiment: Agonist activity at human CB1 receptor expressing CHO cells co-expressing Galpha16 at 10 uM by calcium mobilization assay; assay type: functional, cell-based; conditions: filed as agonist

T2 sequence (P21554 whole entry): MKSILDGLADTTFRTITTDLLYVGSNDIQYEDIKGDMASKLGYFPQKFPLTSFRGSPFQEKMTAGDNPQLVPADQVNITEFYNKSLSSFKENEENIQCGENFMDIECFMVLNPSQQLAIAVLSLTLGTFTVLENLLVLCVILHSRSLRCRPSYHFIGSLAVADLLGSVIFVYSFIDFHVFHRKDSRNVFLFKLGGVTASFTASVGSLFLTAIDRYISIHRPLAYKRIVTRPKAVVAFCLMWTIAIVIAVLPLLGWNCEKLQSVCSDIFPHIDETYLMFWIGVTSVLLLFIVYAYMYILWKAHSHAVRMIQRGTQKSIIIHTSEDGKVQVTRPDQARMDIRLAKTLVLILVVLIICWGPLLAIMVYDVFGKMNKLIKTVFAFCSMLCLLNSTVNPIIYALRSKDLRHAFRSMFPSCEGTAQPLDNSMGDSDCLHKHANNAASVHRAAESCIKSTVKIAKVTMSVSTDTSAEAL
T1 sequence (P34972 whole entry): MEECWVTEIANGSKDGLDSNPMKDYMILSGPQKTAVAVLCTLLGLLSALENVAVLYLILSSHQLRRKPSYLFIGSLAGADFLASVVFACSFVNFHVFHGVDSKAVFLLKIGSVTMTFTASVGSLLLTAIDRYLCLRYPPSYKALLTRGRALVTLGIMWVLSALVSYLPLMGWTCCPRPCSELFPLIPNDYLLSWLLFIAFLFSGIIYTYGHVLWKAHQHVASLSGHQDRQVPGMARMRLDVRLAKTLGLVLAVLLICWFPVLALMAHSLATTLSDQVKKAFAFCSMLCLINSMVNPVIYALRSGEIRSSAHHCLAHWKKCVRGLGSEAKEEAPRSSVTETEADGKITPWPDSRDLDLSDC

| SMILES | EC50 (Cannabinoid receptor 2 [1]) [nM] | EC50 (Cannabinoid receptor 1 [2]) [nM] | Emax (Cannabinoid receptor 2 [3]; filed as agonist) [%] | Emax (Cannabinoid receptor 1 [4]; filed as agonist) [%] | further results |
| --- | --- | --- | --- | --- | --- |
| CCCCCn1nc(C(C)(C)C)cc1C(=O)NC12CC3CC(CC(C3)C1)C2 | 100000 | 100000 | – | – | – |
| CCCCCn1nc(C(C)(C)C)cc1C(=O)NC(C)(C)C | 301 | 100000 | 80 | – | – |
| CCCCCCn1nc(C(=O)NC(C)(C)CO)cc1C(C)(C)C | 13.4 | 47 | 100 | 100 | – |
| CCCCCn1nc(C(=O)NC23CC4CC(CC(C4)C2)C3)cc1C(C)(C)C | 194 | 271 | – | – | Emax (Cannabinoid receptor 2 [3]; filed as partial agonist): 58%; Emax (Cannabinoid receptor 1 [4]; filed as partial agonist): 69% |
| C[C@]12CC[C@H]3[C@@H](CCC4=CC(=O)CC[C@@]43C)[C@@H]1CC[C@@H]2O [TESTOSTERONE] | – | – | – | – | microsomal CLint at 1 µM (in vitro [5]): 73.6 µL/min/mg; CLint scaled at 1 µM (in vitro [6]): 66.3 mL/min/kg; half-life at 1 µM (in vitro [7]): 18.8 min; remaining at 1 h, 1 µM (in vitro [8]): 10.7% |
| CC(C)(CO)NC(=O)c1cc(C(C)(C)C)n(CC2CC2)n1 | 103 | 4900 | 100 | – | Emax (Cannabinoid receptor 1 [4]): 20% |
| CC(C)(CO)NC(=O)c1cc(C(C)(C)C)n(-c2cccnc2)n1 | 100000 | 100000 | – | – | – |
| CCCCCn1nc(C(C)(C)C)cc1C(=O)Nc1ccc(Cl)cc1 | 100000 | 100000 | – | – | – |
| CCCCCn1nc(C(=O)NC(C)(C)CO)c([N+](=O)[O-])c1C(C)(C)C | 13.3 | 129 | 70 | 100 | IC50 (Cannabinoid receptor 2 [9]; cho): Not Active |
| CC(C)(CO)NC(=O)c1cc(C(C)(C)C)n(CCCCF)n1 | 65.9 | 2850 | 100 | 100 | – |
| CCCCCn1nc(C(=O)NC(C)(C)CO)cc1-c1ccc(F)cc1F | 100000 | 100000 | – | – | microsomal CLint at 1 µM (in vitro [5]): 64.6 µL/min/mg; CLint scaled at 1 µM (in vitro [6]): 58.2 mL/min/kg; half-life at 1 µM (in vitro [7]): 21.4 min; remaining at 1 h, 1 µM (in vitro [8]): 14.1%; IC50 (Cannabinoid receptor 2 [9]; read-out: IC50): 87.1 nM |
| CCCCCn1nc(C(=O)Nc2ccncc2)cc1C(C)(C)C | 118 | 220 | 60 | – | Emax (Cannabinoid receptor 1 [4]): 30% |
| O=C(O)Cc1ccccc1Nc1c(Cl)cccc1Cl [DICLOFENAC] | – | – | – | – | microsomal CLint at 1 µM (in vitro [5]): 129 µL/min/mg; CLint scaled at 1 µM (in vitro [6]): 116 mL/min/kg |
| CC(C)(CO)NC(=O)c1cc(C(C)(C)C)n(CCCF)n1 | 184 | 100000 | 100 | – | – |
| Cc1ccc(-n2nc(C(=O)NC(C)(C)CO)cc2C(C)(C)C)cc1 | 197 | 100000 | 40 | – | – |
| CCCCCn1nc(C(C)(C)C)cc1C(=O)NC12CC3CC(CC(O)(C3)C1)C2 | 100000 | 100000 | – | – | – |
| CC(C)(CO)NC(=O)c1cc(C(C)(C)C)n(CCCCCF)n1 | 36.4 | 43 | 70 | 90 | – |
| CC(C)(CO)NC(=O)c1cc(C(C)(C)C)n(-c2ccccc2)n1 | 100000 | 100000 | – | – | – |
| CCCCCn1nc(C(=O)NCc2ccc(Cl)cc2)cc1C(C)(C)C | 100000 | 100000 | – | – | – |
| CCCCCn1nc(C(C)(C)C)cc1C(=O)NC(C)(C)CO | 319 | 100000 | 80 | – | – |
| CCCCCn1nc(C(=O)NC(C)(C)CO)cc1C(C)C | 38.5 | 171 | 70 | 90 | IC50 (Cannabinoid receptor 2 [9]; cho): Not Active |
| CCCCCn1nc(C(=O)NC(C)(C)CO)cc1C1CCCCC1 | 100000 | 100000 | – | – | IC50 (Cannabinoid receptor 2 [9]; cho): Not Active |
| CC(C)(CO)NC(=O)c1cc(C(C)(C)C)n(-c2ccc(F)cc2)n1 | 685 | 100000 | 82 | – | – |
| CCCCCn1nc(C(=O)NC(C)(C)CO)cc1C(C)(C)C | 2.9 | 17.4 | 100 | 100 | microsomal CLint at 1 µM (in vitro [5]): 62.4 µL/min/mg; CLint scaled at 1 µM (in vitro [6]): 56.1 mL/min/kg; half-life at 1 µM (in vitro [7]): 22.2 min; remaining at 1 h, 1 µM (in vitro [8]): 14.9% |
| COc1ccc(-n2nc(C(=O)NC(C)(C)CO)cc2C(C)(C)C)cc1 | 100000 | 100000 | – | – | – |
| CCCCCn1nc(C(=O)NC(C)(C)C)cc1C(C)(C)C | 12 | 7.2 | 100 | 100 | – |
| CCCCCn1nc(C(C)(C)C)cc1C(=O)NCc1ccc(Cl)cc1 | 100000 | 100000 | – | – | – |

| SMILES | EC50 (Cannabinoid receptor 2 [1]) [nM] | EC50 (Cannabinoid receptor 1 [2]) [nM] | Emax (Cannabinoid receptor 2 [3]; filed as agonist) [%] | Emax (Cannabinoid receptor 1 [4]; filed as agonist) [%] | further results |
| --- | --- | --- | --- | --- | --- |
| CC(C)(CO)NC(=O)c1cc(C(C)(C)C)n(-c2ccccn2)n1 | 3890 | 100000 | 80 | – | – |
| CCCCCn1nc(C(=O)N[C@@H](C(=O)OC)C(C)(C)C)cc1C(C)(C)C | 26.1 | 4.3 | 100 | 100 | – |
| CCCCCn1cc(C(=O)NC23CC4CC(CC(C4)C2)C3)c2ccccc21 | – | – | – | – | Emax (Cannabinoid receptor 1 [10]): 98%; EC50 (Cannabinoid receptor 1 [11]): 34 nM; Emax (Cannabinoid receptor 2 [12]): 91% |
| CCCCCn1nc(C(=O)NC23CC4CC(CC(O)(C4)C2)C3)cc1C(C)(C)C | 100000 | 4 | – | 100 | – |
| CCCCn1nc(C(=O)NC(C)(C)CO)cc1C(C)(C)C | 10.1 | 101 | 100 | 90 | – |
| CCCn1nc(C(=O)NC(C)(C)CO)cc1C(C)(C)C | 210 | 100000 | 100 | – | – |
| CC(C)(CO)NC(=O)c1cc(C(C)(C)C)n(-c2ccc(F)cn2)n1 | 135 | 100000 | 100 | – | – |
| CC(C)(CO)NC(=O)c1cc(C(C)(C)C)n(-c2ccc(F)cc2F)n1 | 1730 | 100000 | 80 | – | – |
| CCCCCn1nc(C(=O)NC(C)(C)CO)cc1CC(C)(C)C | 12 | 27 | 50 | 90 | IC50 (Cannabinoid receptor 2 [9]; cho): Not Active |
| COCCn1nc(C(=O)NC(C)(C)CO)cc1C(C)(C)C | 100000 | 100000 | – | – | – |
| CCCCCn1nc(C(=O)N[C@@H](C(=O)OC)C(C)C)cc1C(C)(C)C | 7.4 | 1.6 | 90 | 90 | microsomal CLint at 1 µM (in vitro [5]): 117 µL/min/mg; CLint scaled at 1 µM (in vitro [6]): 105 mL/min/kg; half-life at 1 µM (in vitro [7]): 11.8 min; remaining at 1 h, 1 µM (in vitro [8]): 2.9% |
| CCCCCn1nc(C(=O)N[C@H](C(=O)OC)C(C)C)cc1C(C)(C)C | 7.2 | 26.6 | 100 | 70 | – |
| CCCCCn1nc(C(=O)NC(C)(C)CO)c(N)c1C(C)(C)C | 5.5 | 195 | 100 | 80 | microsomal CLint at 1 µM (in vitro [5]): 104 µL/min/mg; CLint scaled at 1 µM (in vitro [6]): 94 mL/min/kg; half-life at 1 µM (in vitro [7]): 13.3 min; remaining at 1 h, 1 µM (in vitro [8]): 4.6%; IC50 (Cannabinoid receptor 2 [9]; cho): Not Active |
| CC(C)(CO)NC(=O)c1cc(C(C)(C)C)n(-c2ncc(C(F)(F)F)cc2Cl)n1 | 100000 | 100000 | – | – | – |
| CC(C)(CO)NC(=O)c1cc(C(C)(C)C)n(-c2ccc(OC(F)(F)F)cc2)n1 | 100000 | 100000 | – | – | – |
| CC(C)(CO)NC(=O)c1cc(C(C)(C)C)n(-c2ccc(Cl)cn2)n1 | 7310 | 100000 | 50 | – | – |
| CC(C)(CO)NC(=O)c1cc(C(C)(C)C)n(-c2ccc(C(F)(F)F)cc2)n1 | 100000 | 100000 | – | – | – |
| CCCCCn1nc(C(=O)NC2CCCCC2)cc1C(C)(C)C | 46 | 104 | 80 | 50 | – |
| CCCCCn1nc(C(=O)Nc2ccc(Cl)cc2)cc1C(C)(C)C | 2350 | 100000 | 80 | – | – |
| CC(C)(CO)NC(=O)c1cc(C(C)(C)C)n(-c2ccc(Cl)cc2)n1 | 204 | 100000 | 100 | – | – |
| CCCCCn1nc(C(=O)NC(C)(C)CO)cc1C(F)(F)F | 53.8 | 187 | 80 | 80 | IC50 (Cannabinoid receptor 2 [9]; cho): Not Active |
| CCCCCn1nc(C(=O)NC(C)(C)CO)c(Cl)c1C(C)(C)C | 3.4 | 33.9 | 100 | 50 | IC50 (Cannabinoid receptor 2 [9]; cho): Not Active |
| CCCCCn1nc(C(=O)NC(C)(C)CO)cc1C1CC1 | 100000 | 100000 | – | – | IC50 (Cannabinoid receptor 2 [9]; cho): Not Active |
| CC(C)(CO)NC(=O)c1cc(C(C)(C)C)n(-c2ncccn2)n1 | 100000 | 100000 | – | – | – |
| CCCCCn1nc(C(=O)NC(C)(C)CO)c(Br)c1C(C)(C)C | 2 | 27 | 100 | 50 | IC50 (Cannabinoid receptor 2 [9]; cho): Not Active |
| CCCCCCC(C)(C)c1ccc([C@@H]2C[C@H](O)CC[C@H]2CCCO)c(O)c1 [CP-55940] | – | – | – | – | Activity (Cannabinoid receptor 1 [13]): Active; IC50 (Cannabinoid receptor 2 [9]; cho): Not Active; Activity (Cannabinoid receptor 1 [14]): Active |

— ChEMBL document CHEMBL4765487, “From a Designer Drug to the Discovery of Selective Cannabinoid Type 2 Receptor Agonists with Favorable Pharmacokinetic Profiles for the Treatment of Systemic Sclerosis” (J Med Chem, 2021)
